{"source": "patent US20240189305A1", "about": "“THERAPEUTIC AGENT FOR CORONAVIRUS INFECTION” (FUJIFILM TOYAMA CHEMICAL CO., LTD., priority 2021, published 2024)", "tested_on": "SARS-CoV-2", "test": "Test example 1: placebo-controlled, stratified-randomized, multicenter, double-blind phase 3 study in COVID-19 patients with a risk factor for disease progression at an early stage after onset", "assay_type": "in vivo", "conditions": "patients 50 years or older, onset within 72 hours; oral 1,800 mg twice/day for 1 day + 800 mg twice/day for 9 days", "data": [{"smiles": "NC(=O)c1nc(F)cnc1O", "note": "[Compound A, 6-fluoro-3-hydroxy-2-pyrazinecarboxamide]", "values": [{"measurement": "therapeutic effect by primary endpoint (proportion of patients with disease progression up to Day 28) and/or secondary endpoints versus placebo", "value": "therapeutic effect is higher in the Compound A group than in the placebo group"}]}]}
